The text below walks through data of patent US20230226049A1, “ACALABRUTINIB MALEATE DOSAGE FORMS” (Acerta Pharma B.V., priority 2020, published 2023).

Data set [1] is described as follows: Physicochemical properties of acalabrutinib maleate monohydrate (Table 2).
Data set [2] is described as follows: physchem. Particulars: pH 6, water.
Description: In addition, the solubility of acalabrutinib maleate was measured in buffered solutions representative of the media used for dissolution of acalabrutinib maleate tablets.
A short description of data set [3]: Two-stage pH shift dissolution of acalabrutinib salts. It is filed as physicochemical. The conditions noted are these: pH shift method, both starting media; FIGS. 11 and 12. The method, then:
Phosphate, oxalate, and maleate salts of acalabrutinib were evaluated using a two-stage in vitro dissolution method known as a pH shift method. The initial medium was either deionized water or a simulated gastric fluid containing hydrochloric acid and sodium chloride and pH adjusted to 1.8. After the salts were in the initial medium for 30 minutes, the medium was then changed to a FaSSIF-V2 medium by addition of a double strength concentrate to give a final pH of 6.5. The FaSSIF-V2 medium contained a sodium phosphate buffer with sodium chloride, sodium taurocholate, and lecithin. The dissolution testing was conducted using USP dissolution apparatus 2 (paddle) operating at 50 RPM at 37 ± 0.5° C. in 250 mL of medium for first 30 minutes and then in 500 mL of medium post-shift. Samples from the dissolution medium were pulled from the aqueous phase at predetermined time points and assayed by HPLC. FIGS. 2 and 3 show the dissolution profiles of the three salts in the simulated gastric fluid/FaSSIF-V2 media and the deionized water/FaSSIF-V2 media, respectively.
In view of the formulation challenges associated with the physical properties of the phosphate and oxalate salts, the maleate salt was re-tested in the previously described pH shift dissolution method after undergoing particle size reduction. […]

Molecules are shown by their SMILES. Values after ≈ are worked out from the molar mass of the structure shown.

Compound `CC#CC(=O)N1CCC[C@H]1c1nc(-c2ccc(C(=O)Nc3ccccn3)cc2)c2c(N)nccn12` [acalabrutinib free base, 4-{8-amino-3-[(2S)-1-(but-2-ynoyl)pyrrolidin-2-yl]imidazo[1,5-a]pyrazin-1-yl}-N-(pyridin-2-yl)benzamide] gave a pKa in data set [1] (acidic) of 12.1. In addition, the solubility was 48 µg/mL (≈ 103 µM) in data set [1] (aqueous buffer, @ pH 8 Free Base, read-out: Intrinsic solubility) and less than 100 µg/mL in data set [2].
For the compound `CC#CC(=O)N1CCC[C@H]1c1nc(-c2ccc(C(=O)Nc3ccccn3)cc2)c2c(N)nccn12.O=C(O)/C=C\C(=O)O` [micronized maleate salt], the “Dissolution profile relative to unmilled maleate salt” value in data set [3] was “significantly improved”.

As usually defined, the pKa is the pH at which an ionisable group is half protonated. A high value points to a weaker acid or stronger base. What is called solubility is the dissolved amount per volume that the medium holds.
